Data: PMC11960843, “Exploration of the tunability of BRD4 degradation by DCAF16 trans-labelling covalent glues” (European journal of medicinal chemistry, 2024)

Experiments:
BRD4 [1] = target: T1, BRD4 (Homo sapiens, UniProt O60885); assay: BRD4-HiBiT assay, DCAF16 KO JURKAT cells; format: cell-based; design: an 11 amino acid peptide knock-in tag to a protein-of-interest using CRISPR insertion; endogenous in cells; host or cells: JURKAT, HiBiT-edited (wild type or DCAF16 knockout); details: 6 h
Method: (§1) Thereafter, we sought to characterize the BRD4 cellular degradation potencies in a dose-dependent manner at a shorter time point to minimize secondary effects. This was performed using the bioluminescent HiBiT-BRD4 assay, which consists of an 11 amino acid peptide knock-in tag to a protein-of-interest using CRISPR insertion. A complementary polypeptide (LgBiT) detects and interacts with all HiBiT tagged proteins, thereby reconstituting a luminescent NanoBiT enzyme, that can be quantified by its bioluminescence. WT and DCAF16 KO JURKAT cell lines expressing the BRD4-HiBiT system were generated to quantify dose-dependent BRD4 degradation after 6 h incubation (Fig. 4C).
(§2) After 6 h, the plates were subjected to Nano-Glo HiBiT Lytic detection system (Promega, #N3040) as described in manufacturer's manual. The assays were performed in biological triplicate. DC50 values were determined using a non-linear regression curve fit in GraphPad PRISM 9.5.1.

[2] = target: T2, BRD4BD2-DCAF16 ternary complex (Homo sapiens, UniProt O60885+Q9NXF7); assay: DDB1-DCAF16-BRD4BD2 TR-FRET ternary complex formation assay; format: biochemical; details: for TR-FRETmax (520 nm/490 nm ratio): 6 h degrader incubation; for incubation time of saturation / maximum TR-FRET signal: measured at 1, 2, 4, 6 and 24 h
T2 construct: E3 ligase to bromodomain 2 (BRD4BD2); His6 (N); StrepII (N); Avi (N); made in house; host or cells: BRD4BD2: E. coli (pET100/D-TOPO)
T2 sequence (Q9NXF7 whole entry, other chains not shown): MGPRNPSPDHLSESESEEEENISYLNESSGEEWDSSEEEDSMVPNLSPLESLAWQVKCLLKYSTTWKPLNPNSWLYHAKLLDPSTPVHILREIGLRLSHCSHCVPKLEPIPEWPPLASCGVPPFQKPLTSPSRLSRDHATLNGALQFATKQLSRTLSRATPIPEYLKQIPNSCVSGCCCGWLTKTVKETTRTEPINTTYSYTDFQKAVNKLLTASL
Text: To determine the relationship between covalent warheads and DCAF16 recruitment to BRD4BD2, we used a time-resolved fluorescence energy transfer (TR-FRET) assay to measure induced BRD4BD2-DCAF16 ternary complex formation (Fig. 3A).
Furthermore, we wanted to determine the kinetics of the BRD4BD2-DCAF16 interaction given its covalent nature. […] Additionally, to understand the relationship between ternary complex formation kinetics and warhead reactivity we measured the depletion of the covalent analogs in the presence of glutathione using MS (Table S2). […] Titrations of compounds to induce the DCAF16-BRD4BD complex were carried out by mixing 100 nM biotinylated BRD4BD2, 500 nM BODIPY-FL labeled DDB1ΔB-DCAF16 variants, and 2 nM terbium-coupled streptavidin (Invitrogen) in an assay buffer containing 50 mM HEPES pH 8.0, 200 mM NaCl, 0.1% Pluronic F-68 solution (Sigma), 0.5% bovine serum albumin (BSA) (w/v) and 1 mM TCEP. […] The TR-FRET signal of each data point was extracted by calculating the 520/490 nm ratio.

BRD4BD2 [3] = target: T3, BRD4BD2 (Homo sapiens, UniProt O60885); assay: BRD4BD2-eGFP and mCherry flow reporter degradation assay, wild type K562 cells; details: for increase in degradation potency in comparison to GNE011: BRD4BD2 reporter, 16 h; for Dmax: K562, read-out: maximal degradation (Dmax/16h) of BRD4BD2, K562 cells, 16 h incubation; for DC50: read-out: DC50 of BRD4BD2 degradation
Text: This assay involves the co-expression of mCherry with BRD4BD1/2 fused to an enhanced green fluorescent protein (eGFP) tag, and the subsequent fluorescence measurement of BRD4BD1/2-eGFP normalized to mCherry as a readout for BRD4BD1/2 degradation. It allows for a quantitative, rapid, and facile screening of several MGDs, in a dose-and time-dependent manner. […] Thus, the BRD4BD2 stability system was used to test all subsequent GNE011 analogs in wild type and DCAF16−/− cells.
One day after infection, reporter cells were selected with puromycin at a concentration of 2 μg/mL.
(§5) K562 cells stably expressing degradation reporter were dosed with DMSO or degraders at various times and concentrations using D300e Digital Dispenser (HP). The fluorescent signal was quantified by flow cytometry (LSRFortessa flow cytometer, BD Biosciences) and analyzed using FlowJo (flow cytometry analysis software, BD Biosciences). The geometric mean of the eGFP and mCherry fluorescent signal for round and mCherry-positive cells was calculated. GFP expression was normalized to mCherry signal and drug treatments were compared to DMSO controls.

BRD4 [4] = target: T1, BRD4; assay: BRD4-HiBiT assay, WT JURKAT cells; format: cell-based; design: an 11 amino acid peptide knock-in tag to a protein-of-interest using CRISPR insertion; endogenous in cells; host or cells: JURKAT, HiBiT-edited (wild type or DCAF16 knockout); details: 6 h
Method: as §1, §2

BRD4BD1 = BRD4BD1 (Homo sapiens, UniProt O60885); assay: BRD4 AlphaScreen competition assay (JQ1-biotin displacement), BRD4BD1; format: binding; details: read-out: IC50 BRD4BD1
BRD4BD2 [5] = target: T3, BRD4BD2; assay: BRD4 AlphaScreen competition assay (JQ1-biotin displacement), BRD4BD2; format: binding; details: read-out: IC50 BRD4BD2
BRD4 [6] = target: T1, BRD4; assay: Washout experiment, Western blot of BRD4 degradation in K562 cells; format: cell-based; design: an 11 amino acid peptide knock-in tag to a protein-of-interest using CRISPR insertion; endogenous in cells; details: K562, 1 μM; for BRD4 degradation after washout compared to no washout (in words): 4 h treatment, 20 h compound-free vs 24 h no washout
Method: This experiment involves cell treatment and incubation with a ‘covalent’ compound, followed by a wash-step where the cells are washed and resuspended in compound-free cell media.
Cells were washed with PBS and lysed in RIPA lysis buffer (Thermo Fisher Scientific) with Halt Protease Inhibitor Cocktail (Thermo Fisher Scientific) and Benzonase (Sigma-Aldrich) for 20 min on ice. […] Membranes were blocked in Intercept (PBS) Blocking Buffer (LI-COR Biosciences) and incubated with primary antibodies overnight at 4 °C. The membranes were then washed in Tris-buffered saline with Tween-20 (TBS-T), incubated for 1 h with secondary IRDye-conjugated antibodies (LI-COR Biosciences) and washed three times in TBS-T for 5 min before near-infrared western blot detection on an Odyssey Imaging System (LI-COR Biosciences).

BRD4 [7] = target: T1, BRD4; assay: Western blot of BRD4 degradation, wild-type K562 cells; format: cell-based; design: an 11 amino acid peptide knock-in tag to a protein-of-interest using CRISPR insertion; endogenous in cells; details: wild-type K562, 1 μM, 16 h
Method: (§3) Western blotting was used to determine the degradation potencies of the covalent BRD4 degraders.
(§4) Cells were washed with PBS and lysed in RIPA lysis buffer (Thermo Fisher Scientific) with Halt Protease Inhibitor Cocktail (Thermo Fisher Scientific) and Benzonase (Sigma-Aldrich) for 20 min on ice. The insoluble fraction was removed by centrifugation, the protein concentration was quantified using a BCA protein assay kit (Thermo Fisher Scientific), and an equal amount of lysate was run on SDS–PAGE 4–12% Bis–Tris Protein Gels (Thermo Fisher Scientific) and then transferred to nitrocellulose membrane with a XCell II Blot Module Wet Tank Transfer System (Thermo Fisher Scientific). Membranes were blocked in Intercept (PBS) Blocking Buffer (LI-COR Biosciences) and incubated with primary antibodies overnight at 4 °C. The membranes were then washed in Tris-buffered saline with Tween-20 (TBS-T), incubated for 1 h with secondary IRDye-conjugated antibodies (LI-COR Biosciences) and washed three times in TBS-T for 5 min before near-infrared western blot detection on an Odyssey Imaging System (LI-COR Biosciences).

glutathione = assay: GSH stability (glutathione reactivity) assay by LC-MS/MS; format: physicochemical; details: PBS containing 5 mM reduced glutathione; PBS + 5 mM GSH; extrapolated from 240 min assay
Text: Furthermore, we wanted to determine the kinetics of the BRD4BD2-DCAF16 interaction given its covalent nature. […] Additionally, to understand the relationship between ternary complex formation kinetics and warhead reactivity we measured the depletion of the covalent analogs in the presence of glutathione using MS (Table S2). […].

BRD4 [8] = target: T1, BRD4; assay: Western blot of BRD4 degradation, DCAF16 KO K562 cells; format: cell-based; design: an 11 amino acid peptide knock-in tag to a protein-of-interest using CRISPR insertion; endogenous in cells; details: DCAF16 KO K562, 1 μM, 16 h
Method: as §3, §4

BRD4BD2 [9] = target: T3, BRD4BD2; assay: BRD4BD2-eGFP and mCherry flow reporter degradation assay, DCAF16 KO K562 cells
Text: In order to investigate the degradation of BRD4 by GNE011 and related analogs, we used a fluorescent stability reporter assay reported previously (Fig. 2A) [17]. This assay involves the co-expression of mCherry with BRD4BD1/2 fused to an enhanced green fluorescent protein (eGFP) tag, and the subsequent fluorescence measurement of BRD4BD1/2-eGFP normalized to mCherry as a readout for BRD4BD1/2 degradation. It allows for a quantitative, rapid, and facile screening of several MGDs, in a dose-and time-dependent manner. […] Thus, the BRD4BD2 stability system was used to test all subsequent GNE011 analogs in wild type and DCAF16−/− cells.
Lentivirus containing sgRNA was transduced to 2 × 10^6 of K562-Cas9 cells at 10% volume ratio by spin infection. FACS sorting was performed to enrich BFP+ cells one week after infection. […] Clonal sgDCAF16-expressing K562-Cas9 cells were isolated after one month of expansion, and the genomic sequences were validated via deep sequencing of PCR amplicons targeting sgDCAF16 cutting sites (MGH CCIB DNA Core Service).
as §5

[10] = GSH stability (glutathione reactivity) assay by LC-MS/MS; format: physicochemical; details: phosphate buffered saline (PBS) without glutathione, extrapolated from 240 min assay

C=CC(=O)Nc1ccc(C2=N[C@@H](CC(=O)OC(C)(C)C)c3nnc(C)n3-c3sc(C)c(C)c32)cc1 [MMH1, tert-butyl (S)-2-(4-(4-acrylamidophenyl)-2,3,9-trimethyl-6H-thieno[3,2-f][1,2,4]triazolo[4,3-a][1,4]diazepin-6-yl)acetate]
BRD4 degradation in DCAF16 KO (in words) (BRD4 [1]): completely rescued by DCAF16 KO
TR-FRETmax (520 nm/490 nm ratio) [2]: 1.78
incubation time of saturation / maximum TR-FRET signal [2]: 24 h
increase in degradation potency in comparison to GNE011 (BRD4BD2 [3]; K562 cells): ~ 3333 fold
Dmax (BRD4BD2 [3]): 95%
DC50 (BRD4BD2 [3]; K562 cells, 16 h incubation): 0.3 nM
BRD4 degradation (in words) (BRD4 [4]): noticeable BRD4 degradation
BRD4 degradation (BRD4 [4]; at <100 nM): > 90%
IC50 (BRD4BD1): 17.7 nM
IC50 (BRD4BD2 [5]): 15.5 nM
BRD4 degradation after washout compared to no washout (in words) (BRD4 [6]): no or minimal difference
BRD4 degradation by Western blot (in words) (BRD4 [7]): nearly complete BRD4 degradation
half-life (glutathione): 9.53 h
BRD4 degradation by Western blot in DCAF16 KO (in words) (BRD4 [8]): completely rescued by DCAF16 KO
BRD4BD2 degradation activity in DCAF16 knockout cells (in words) (BRD4BD2 [9]): almost entirely ablated

C=CS(=O)(=O)Nc1ccc(C2=N[C@@H](CC(=O)OC(C)(C)C)c3nnc(C)n3-c3sc(C)c(C)c32)cc1 [MMH2, tert-butyl (S)-2-(2,3,9-trimethyl-4-(4-(vinylsulfonamido)phenyl)-6H-thieno[3,2-f][1,2,4]triazolo[4,3-a][1,4]diazepin-6-yl)acetate]
BRD4 degradation in DCAF16 KO (in words) (BRD4 [1]): completely rescued by DCAF16 KO
TR-FRETmax (520 nm/490 nm ratio) [2]: 3.75
incubation time of saturation / maximum TR-FRET signal [2]: 1 h
increase in degradation potency in comparison to GNE011 (BRD4BD2 [3]; K562 cells): ~1000 fold
Dmax (BRD4BD2 [3]): 95%
DC50 (BRD4BD2 [3]; K562 cells, 16 h incubation): 1 nM
BRD4 degradation (in words) (BRD4 [4]): noticeable BRD4 degradation
BRD4 degradation (BRD4 [4]; at <100 nM): > 90%
IC50 (BRD4BD1): 48.6 nM
BRD4 degradation after washout compared to no washout (in words) (BRD4 [6]): no or minimal difference
BRD4 degradation by Western blot (in words) (BRD4 [7]): nearly complete BRD4 degradation
half-life (glutathione): > 12.5 h
BRD4 degradation by Western blot in DCAF16 KO (in words) (BRD4 [8]): completely rescued by DCAF16 KO
BRD4BD2 degradation activity in DCAF16 knockout cells (in words) (BRD4BD2 [9]): almost entirely ablated

Cc1sc2c(c1C)C(c1ccc(NC(=O)CCl)cc1)=N[C@@H](CC(=O)OC(C)(C)C)c1nnc(C)n1-2 [MMH249, tert-butyl (S)-2-(4-(4-(2-chloroacetamido)phenyl)-2,3,9-trimethyl-6H-thieno[3,2-f][1,2,4]triazolo[4,3-a][1,4]diazepin-6-yl)acetate]
BRD4 degradation in DCAF16 KO (in words) (BRD4 [1]): completely rescued by DCAF16 KO
TR-FRETmax (520 nm/490 nm ratio) [2]: 0.77
incubation time of saturation / maximum TR-FRET signal [2]: 24 h
Dmax (BRD4BD2 [3]): 56%
DC50 (BRD4BD2 [3]; K562 cells, 16 h incubation): 8 nM
BRD4 degradation (BRD4 [4]): < 60%
BRD4 degradation (in words) (BRD4 [4]): noticeable BRD4 degradation
IC50 (BRD4BD1): 3.98 nM
IC50 (BRD4BD2 [5]): 2.59 nM
BRD4 degradation after washout compared to no washout (in words) (BRD4 [6]): no or minimal difference
BRD4 degradation by Western blot (in words) (BRD4 [7]): moderate degradation
half-life (glutathione): 8.85 h
BRD4BD2 degradation activity in DCAF16 knockout cells (in words) (BRD4BD2 [9]): almost entirely ablated

Cc1sc2c(c1C)C(c1ccc(/C=C/C(N)=O)cc1)=N[C@@H](CC(=O)OC(C)(C)C)c1nnc(C)n1-2 [MMH271, tert-butyl (S,E)-2-(4-(4-(3-amino-3-oxoprop-1-en-1-yl)phenyl)-2,3,9-trimethyl-6H-thieno[3,2-f][1,2,4]triazolo[4,3-a][1,4]diazepin-6-yl)acetate]
TR-FRETmax (520 nm/490 nm ratio) [2]: 0.14
BRD4BD2-DCAF16 ternary complex formation / DCAF16 recruitment (in words) ([2]; time-dependent TR-FRET): no significant DCAF16 recruitment
DCAF16 dependent BRD4BD2 degradation (in words) (BRD4BD2 [3]; K562 cells, 16 h incubation): almost no DCAF16 dependent BRD4BD2 degradation
IC50 (BRD4BD1): 8.08 nM
IC50 (BRD4BD2 [5]): 7.58 nM
BRD4 degradation without washout (in words) (BRD4 [6]; 24 h no washout): showed BRD4 degradation in 24 h no washout experiments
half-life [10]: > 12.5 h
half-life (glutathione): > 12.5 h
